Test [1] concerns the target Serine/threonine-protein kinase mTOR (Homo sapiens, UniProt P42345). In words: Inhibition of human mTOR measured after 30 mins in presence of ATP by Lanthascreen TR-FRET assay. A general note: Time-resolved FRET reads energy transfer from a long-lived donor to a nearby acceptor.
Test [2] addresses Phosphatidylinositol 4,5-bisphosphate 3-kinase catalytic subunit alpha isoform (Homo sapiens, UniProt P42336). In words: Inhibition of PI3K alpha (unknown origin).

Chain of Phosphatidylinositol 4,5-bisphosphate 3-kinase catalytic subunit alpha isoform (P42336 whole entry, canonical isoform): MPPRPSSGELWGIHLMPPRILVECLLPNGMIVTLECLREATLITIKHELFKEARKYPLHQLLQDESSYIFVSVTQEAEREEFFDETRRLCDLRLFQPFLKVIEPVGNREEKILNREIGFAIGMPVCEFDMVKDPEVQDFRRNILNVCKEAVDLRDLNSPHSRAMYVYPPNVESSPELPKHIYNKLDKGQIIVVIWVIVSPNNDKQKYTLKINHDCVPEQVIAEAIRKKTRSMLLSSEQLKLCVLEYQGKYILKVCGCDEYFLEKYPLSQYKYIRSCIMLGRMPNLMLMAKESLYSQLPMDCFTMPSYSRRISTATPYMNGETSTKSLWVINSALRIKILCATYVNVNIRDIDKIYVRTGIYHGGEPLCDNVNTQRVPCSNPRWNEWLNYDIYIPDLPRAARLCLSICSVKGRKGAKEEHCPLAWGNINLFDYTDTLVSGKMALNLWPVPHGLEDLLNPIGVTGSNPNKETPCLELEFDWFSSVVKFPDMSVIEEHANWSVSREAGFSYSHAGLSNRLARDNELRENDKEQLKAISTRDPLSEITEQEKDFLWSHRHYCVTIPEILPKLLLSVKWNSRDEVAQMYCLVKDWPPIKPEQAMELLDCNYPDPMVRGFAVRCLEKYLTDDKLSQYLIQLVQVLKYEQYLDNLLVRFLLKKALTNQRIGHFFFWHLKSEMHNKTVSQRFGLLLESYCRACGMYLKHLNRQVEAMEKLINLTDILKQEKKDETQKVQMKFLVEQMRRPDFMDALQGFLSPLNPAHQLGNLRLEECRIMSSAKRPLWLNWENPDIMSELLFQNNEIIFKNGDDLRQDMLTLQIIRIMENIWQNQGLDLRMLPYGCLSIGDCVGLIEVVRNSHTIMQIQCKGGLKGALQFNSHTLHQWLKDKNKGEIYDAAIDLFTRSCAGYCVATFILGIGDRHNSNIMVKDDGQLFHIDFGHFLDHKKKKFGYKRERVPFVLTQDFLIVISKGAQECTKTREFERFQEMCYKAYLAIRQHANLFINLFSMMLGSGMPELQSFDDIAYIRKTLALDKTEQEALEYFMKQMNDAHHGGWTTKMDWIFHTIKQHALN

Regarding `CNC(=O)Nc1ccc(-c2ncc3c(n2)N2CCOCC2C(=O)N3CC2CC2)cc1` (centres undefined), the results for the IC50 in test [1] and in test [2] were 31.6 nM and 20 nM, respectively.
On the same counts, the results for `C[C@@]12COCCN1c1nc(-c3ccc(NC(=O)NC4CC4)cc3)ncc1N(CC1CC1)C2=O` are 6.31 nM and 794 nM.

These data come from ChEMBL document CHEMBL4359925, “Rational discovery of a highly novel and selective mTOR inhibitor” (Bioorg Med Chem Lett, 2019).
